Holding throughout (format): biochemical
The target of assay [1] is T1, JAK1 (aa 850-1154, catalytic domain, GST-tag) (Homo sapiens, UniProt P23458).
T1 construct: JAK1 (aa 850-1154) and TYK2 (aa 871-1187) are expressed with an N-terminally fused GST-tag; GST (N); purchased Carna Biosciences, Inc; host or cells: baculovirus expression system
As to the kind of experiment: JAK kinase assay (HTRF, phosphorylation of TK substrate-biotin), JAK1. The settings on record: ATP at Km (7 μM). In outline:
(§1)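 Baculovirus-expressed catalytic domains phosphorylated 1 μM TK substrate-biotin in 50 mM Hepes pH 7.0 with ATP at Km (JAK1 7 μM, JAK2 4 μM, JAK3 2 μM, TYK2 13 μM) for 20-30 min at RT. EDTA/KF stop, streptavidin-XL665 plus cryptate antibody overnight; HTRF signal gave EC50.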

Assay [2] has as its target T2, JAK2 (catalytic domain, His-tag) (Homo sapiens, UniProt O60674).
T2 construct: All four purified enzymes contain only the catalytic domain; His (N); purchased Carna Biosciences, Inc; host or cells: baculovirus expression system
As to the kind of experiment: JAK kinase assay (HTRF, phosphorylation of TK substrate-biotin), JAK2. As to conditions: ATP at Km (4 μM). The method, boiled down: as §1
A general note: TR-FRET usually uses a lanthanide donor and a delayed reading to cut background.

Assay [3] has as its target T3, JAK3 (catalytic domain, His-tag) (Homo sapiens, UniProt P52333).
T3 construct: All four purified enzymes contain only the catalytic domain; His (N); purchased Carna Biosciences, Inc; host or cells: baculovirus expression system
The assay can be described thus: JAK kinase assay (HTRF, phosphorylation of TK substrate-biotin), JAK3. The settings on record: ATP at Km (2 μM). The method, boiled down: as §1

The target of assay [4] is T4, TYK2 (aa 871-1187, catalytic domain, GST-tag) (Homo sapiens, UniProt P29597).
T4 construct: JAK1 (aa 850-1154) and TYK2 (aa 871-1187) are expressed with an N-terminally fused GST-tag; GST (N); purchased Carna Biosciences, Inc; host or cells: baculovirus expression system
T4 sequence (P29597 871-1187): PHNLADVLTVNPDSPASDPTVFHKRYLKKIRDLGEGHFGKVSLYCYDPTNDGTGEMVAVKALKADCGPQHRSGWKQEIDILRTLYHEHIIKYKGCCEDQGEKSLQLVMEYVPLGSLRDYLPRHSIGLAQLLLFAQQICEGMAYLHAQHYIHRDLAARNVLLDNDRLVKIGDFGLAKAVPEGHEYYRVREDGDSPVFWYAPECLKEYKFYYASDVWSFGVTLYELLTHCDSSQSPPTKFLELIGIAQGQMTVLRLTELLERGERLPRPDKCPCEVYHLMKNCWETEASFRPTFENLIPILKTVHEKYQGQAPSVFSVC
The assay can be described thus: JAK kinase assay (HTRF, phosphorylation of TK substrate-biotin), TYK2. The settings on record: ATP at Km (13 μM). The method, boiled down:
as §1

Setting [5] is: HTRF assay, read-out: JAK1 kinase inhibitory activity (EC50 indicator).
Where [6] appears, read: HTRF assay, read-out: JAK2 kinase inhibitory activity (EC50 indicator).
Setting [7] is: HTRF assay, read-out: JAK3 kinase inhibitory activity (EC50 indicator).
Setting [8] is: HTRF assay, read-out: TYK2 kinase inhibitory activity (EC50 indicator).
The mark [9] stands for this setting: read-out: JAK1 kinase inhibitory activity (EC50 indicator).
Setting [10] is: read-out: JAK2 kinase inhibitory activity (EC50 indicator).
Setting [11] is: read-out: JAK3 kinase inhibitory activity (EC50 indicator).
Setting [12] is: read-out: TYK2 kinase inhibitory activity (EC50 indicator).

Where two headings read alike, the source gives them in different places.

T1 sequence (P23458 850-1154): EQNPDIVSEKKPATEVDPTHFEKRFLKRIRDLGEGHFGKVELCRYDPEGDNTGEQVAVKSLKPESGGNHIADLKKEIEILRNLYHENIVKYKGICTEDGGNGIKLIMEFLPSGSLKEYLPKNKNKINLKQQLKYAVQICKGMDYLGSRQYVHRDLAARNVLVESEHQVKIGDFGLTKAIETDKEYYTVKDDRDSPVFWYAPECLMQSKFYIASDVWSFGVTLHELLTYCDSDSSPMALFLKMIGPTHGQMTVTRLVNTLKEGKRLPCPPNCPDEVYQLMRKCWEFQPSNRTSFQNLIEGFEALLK
T3 sequence (P52333 822-1111 limits assumed): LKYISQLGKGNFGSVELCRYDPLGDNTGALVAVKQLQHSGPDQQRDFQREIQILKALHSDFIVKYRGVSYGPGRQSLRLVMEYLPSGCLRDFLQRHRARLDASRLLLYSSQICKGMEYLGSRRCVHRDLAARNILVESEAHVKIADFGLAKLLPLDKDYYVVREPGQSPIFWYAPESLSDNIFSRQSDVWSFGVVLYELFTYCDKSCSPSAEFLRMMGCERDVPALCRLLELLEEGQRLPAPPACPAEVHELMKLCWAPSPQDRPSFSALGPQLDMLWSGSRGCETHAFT
T2 sequence (O60674 849-1124 limits assumed): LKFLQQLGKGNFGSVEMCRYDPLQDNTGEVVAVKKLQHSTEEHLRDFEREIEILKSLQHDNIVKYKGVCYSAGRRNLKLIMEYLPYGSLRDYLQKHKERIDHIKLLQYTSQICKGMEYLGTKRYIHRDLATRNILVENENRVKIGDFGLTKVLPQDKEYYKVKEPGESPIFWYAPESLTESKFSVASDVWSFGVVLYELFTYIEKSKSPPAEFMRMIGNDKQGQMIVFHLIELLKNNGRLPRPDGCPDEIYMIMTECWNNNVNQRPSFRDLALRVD

One may read the EC50 as the concentration that produces a half-maximal response. Regarding `O=C(c1cnccn1)N1[C@@H]2CC[C@H]1CN(c1ncnc3[nH]ccc13)C2` [Example 421, Pyrazin-2-yl-[3-(7H-pyrrolo[2,3-d]pyrimidin-4-yl)-3,8-diaza-bicyclo[3.2.1]oct-8-yl]-methanone], the EC50 in assay [1] (setting [5]) was under 100 nM; in assay [2] (setting [6]), under 100 nM; in assay [3] (setting [7]) it was 100 to 500 nM; in assay [4] (setting [8]), over 500 nM.

`N#CCOc1cccc(C(=O)N2CCN(c3ncnc4[nH]ccc34)CC23CC3)c1` [Example 67, {3-[7-(7H-Pyrrolo[2,3-d]pyrimidin-4-yl)-4,7-diaza-spiro[2.5]octane-4-carbonyl]-phenoxy}-acetonitrile]: the EC50 was under 100 nM in assay [1] (setting [9]), under 100 nM in assay [2] (setting [10]), 100 to 500 nM in assay [3] (setting [11]) and 100 to 500 nM in assay [4] (setting [12]).

As to `NS(=O)(=O)CCC(=O)N1CCN(c2ncnc3[nH]ccc23)CC12CC2` [Example 17, 3-Oxo-3-[7-(7H-pyrrolo[2,3-d]pyrimidin-4-yl)-4,7-diazaspiro[2.5]oct-4-yl]propane-1-sulfonic acid amide], the EC50 in assay [1] (setting [9]) is under 100 nM; in assay [2] (setting [10]) it was under 100 nM; in assay [3] (setting [11]) it was under 100 nM; in assay [4] (setting [12]), 100 to 500 nM.

In the case of `N#CCCN1CCCC(C(=O)N2CCN(c3ncnc4[nH]ccc34)CC23CC3)C1` (stereo not shown) [Example 95, 3-{3-[7-(7H-Pyrrolo[2,3-d]pyrimidin-4-yl)-4,7-diaza-spiro[2.5]octane-4-carbonyl]-piperidin-1-yl}-propionitrile], the concentration for a half-maximal effect (EC50) in assay [1] (setting [9]) is 100 to 500 nM; in assay [2] (setting [10]), 100 to 500 nM; in assay [3] (setting [11]), over 500 nM; in assay [4] (setting [12]) it was over 500 nM.

As to `NS(=O)(=O)c1ccc(CC(=O)N2CCN(c3ncnc4[nH]ccc34)CC23CC3)cc1` [Example 191, 4-{2-Oxo-2-[7-(7H-pyrrolo[2,3-d]pyrimidin-4-yl)-4,7-diaza-spiro[2.5]oct-4-yl]-ethyl}-benzenesulfonamide], the EC50 in assay [1] (setting [9]) was under 100 nM; in assay [2] (setting [10]), under 100 nM; in assay [3] (setting [11]) it was under 100 nM; in assay [4] (setting [12]) it was over 500 nM.

Regarding `N#Cc1cccc(C(=O)N2[C@@H]3CC[C@@H]2CN(c2ncnc4[nH]ccc24)C3)c1` [Example 173, 3-[3-(7H-Pyrrolo[2,3-d]pyrimidin-4-yl)-3,8-diaza-bicyclo[3.2.1]octane-8-carbonyl]-benzonitrile], the EC50 in assay [1] (setting [9]) is under 100 nM; in assay [2] (setting [10]), under 100 nM; in assay [3] (setting [11]), under 100 nM; in assay [4] (setting [12]), 100 to 500 nM.

Consider `NS(=O)(=O)c1ccc(C(=O)NCC(=O)N2CCN(c3ncnc4[nH]ccc34)CC23CC3)cc1` [Example 410, N-{2-Oxo-2-[7-(7H-pyrrolo[2,3-d]pyrimidin-4-yl)-4,7-diaza-spiro[2.5]oct-4-yl]-ethyl}-4-sulfamoyl-benzamide], for which the EC50 in assay [1] (setting [5]), in assay [2] (setting [6]), in assay [3] (setting [7]) and in assay [4] (setting [8]) was under 100 nM throughout.

Take `O=C(c1ccc(C(F)(F)F)cc1)N1[C@@H]2CC[C@H]1CN(c1ncnc3[nH]ccc13)C2` [Example 1, [3-(7H-Pyrrolo[2,3-d]pyrimidin-4-yl)-3,8-diazabicyclo[3.2.1]oct-8-yl]-(4-trifluoromethylphenyl)methanone]: the EC50 in assay [1] (setting [9]) was under 100 nM; in assay [2] (setting [10]), 100 to 500 nM; in assay [3] (setting [11]) it was over 500 nM; in assay [4] (setting [12]), over 500 nM.

In the case of `O=C(c1cnc2ccccc2n1)N1CCN(c2ncnc3[nH]ccc23)CC12CC2` [Example 161, [7-(7H-Pyrrolo[2,3-d]pyrimidin-4-yl)-4,7-diaza-spiro[2.5]oct-4-yl]-quinoxalin-2-yl-methanone], the EC50 in assay [1] (setting [9]), in assay [2] (setting [10]), in assay [3] (setting [11]) and in assay [4] (setting [12]) was under 100 nM each time.

For the molecule `O=C(c1c[nH]c2ccccc12)N1CCN(c2ncnc3[nH]ccc23)CC12CC2` [Example 16, (1H-Indol-3-yl)-[7-(7H-pyrrolo[2,3-d]pyrimidin-4-yl)-4,7-diazaspiro[2.5]oct-4-yl]methanone], the EC50 in assay [1] (setting [9]) was under 100 nM; in assay [2] (setting [10]), under 100 nM; in assay [3] (setting [11]), under 100 nM; in assay [4] (setting [12]) it was 100 to 500 nM.

For `NS(=O)(=O)c1ccc(OCC(=O)N2CCN(c3ncnc4[nH]ccc34)CC23CC3)cc1` [Example 399, 4-{2-Oxo-2-[7-(7H-pyrrolo[2,3-d]pyrimidin-4-yl)-4,7-diaza-spiro[2.5]oct-4-yl]-ethoxy}-benzenesulfonamide], the concentration giving a half-maximal response (EC50) in assay [1] (setting [5]), in assay [2] (setting [6]), in assay [3] (setting [7]) and in assay [4] (setting [8]) was under 100 nM each time.

As for `CNS(=O)(=O)c1ccc(C(=O)N2CCN(c3ncnc4[nH]ccc34)CC23CC3)cc1` [Example 104, N-Methyl-4-[7-(7H-pyrrolo[2,3-d]pyrimidin-4-yl)-4,7-diaza-spiro[2.5]octane-4-carbonyl]-benzenesulfonamide], the EC50 in assay [1] (setting [9]), in assay [2] (setting [10]), in assay [3] (setting [11]) and in assay [4] (setting [12]) was under 100 nM throughout.

Turning to `N#Cc1ccc(C2(C(=O)N3CCN(c4ncnc5[nH]ccc45)CC34CC4)CC2)cc1` [Example 429, 4-{1-[7-(7H-Pyrrolo[2,3-d]pyrimidin-4-yl)-4,7-diaza-spiro[2.5]octane-4-carbonyl]-cyclopropyl}-benzonitrile], the EC50 was under 100 nM in assay [1] (setting [5]), under 100 nM in assay [2] (setting [6]), under 100 nM in assay [3] (setting [7]) and 100 to 500 nM in assay [4] (setting [8]).

As for `CCCNS(=O)(=O)c1ccc(C(=O)N2CCN(c3ncnc4[nH]ccc34)CC23CC3)cc1` [Example 377, N-Propyl-4-[7-(7H-pyrrolo[2,3-d]pyrimidin-4-yl)-4,7-diaza-spiro[2.5]octane-4-carbonyl]-benzenesulfonamide], the EC50 was under 100 nM in assay [1] (setting [5]), under 100 nM in assay [2] (setting [6]), under 100 nM in assay [3] (setting [7]) and 100 to 500 nM in assay [4] (setting [8]).

On to `NS(=O)(=O)c1cccc(C(=O)N2CCN(c3ncnc4[nH]ccc34)CC23CC3)c1` [Example 371, 3-[7-(7H-Pyrrolo[2,3-d]pyrimidin-4-yl)-4,7-diaza-spiro[2.5]octane-4-carbonyl]-benzenesulfonamide], for which the EC50 in assay [1] (setting [5]), in assay [2] (setting [6]), in assay [3] (setting [7]) and in assay [4] (setting [8]) was under 100 nM throughout.

Take `O=C(c1ncco1)N1[C@@H]2CC[C@@H]1CN(c1ncnc3[nH]ccc13)C2` [Example 177, Oxazol-2-yl-[3-(7H-pyrrolo[2,3-d]pyrimidin-4-yl)-3,8-diaza-bicyclo[3.2.1]oct-8-yl]-methanone]: the EC50 in assay [1] (setting [9]) was 100 to 500 nM; in assay [2] (setting [10]), 100 to 500 nM; in assay [3] (setting [11]) it was 100 to 500 nM; in assay [4] (setting [12]) it was over 500 nM.

Take `Cc1cnc(C(=O)N2[C@@H]3CC[C@H]2CN(c2ncnc4[nH]ccc24)C3)cn1` [Example 74, (5-Methyl-pyrazin-2-yl)-[3-(7H-pyrrolo[2,3-d]pyrimidin-4-yl)-3,8-diaza-bicyclo[3.2.1]oct-8-yl]-methanone]: the concentration giving a half-maximal response (EC50) in assay [1] (setting [9]) is 100 to 500 nM; in assay [2] (setting [10]), 100 to 500 nM; in assay [3] (setting [11]), over 500 nM; in assay [4] (setting [12]), over 500 nM.

Turning to `O=C(NC1CCCCC1)N1CCN(c2ncnc3[nH]ccc23)CC12CC2` [Example 436, 7-(7H-Pyrrolo[2,3-d]pyrimidin-4-yl)-4,7-diaza-spiro[2.5]octane-4-carboxylic acid cyclohexylamide], the EC50 in assay [1] (HTRF assay, read-out: JAK1 kinase inhibitory activity (EC50)) is under 100 nM; in assay [2] (HTRF assay, read-out: JAK2 kinase inhibitory activity (EC50)), under 100 nM; in assay [3] (HTRF assay, read-out: JAK3 kinase inhibitory activity (EC50)), under 100 nM; in assay [4] (HTRF assay, read-out: TYK2 kinase inhibitory activity (EC50)), 100 to 500 nM.

For `O=C(c1cc2cc(F)cc(F)c2[nH]1)N1C2CCC1CN(c1ncnc3[nH]ccc13)C2` [Example 140, (5,7-Difluoro-1H-indol-2-yl)-[3-(7H-pyrrolo[2,3-d]pyrimidin-4-yl)-3,8-diaza-bicyclo[3.2.1]oct-8-yl]-methanone], the EC50 was under 100 nM in assay [1] (setting [9]), under 100 nM in assay [2] (setting [10]), under 100 nM in assay [3] (setting [11]) and over 500 nM in assay [4] (setting [12]).

The values are drawn from US9346809B2 (LEO PHARMA A/S, priority 2009, dated 2016).
